Data as given in patent publication US12077503B2, “Substituted cyclic amides and their use as herbicides” (FMC CORPORATION, priority 2015, dated 2024).

What was measured:
Format in all cases: in vivo
[1] = test system: ducksalad (Heteranthera limosa); assay: Test B flooded paddy test; details: Heteranthera limosa, 360 h, Flood, 250 g ai/ha; visually evaluated after 13 to 15 d; read-out: Plant response rating, Ducksalad (0 to 100 scale where 0 is no effect and 100 is complete control)
In short: (§1)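 Visual ratings (0 none to 100 complete control) are relative to untreated plants, taken 13–15 d after treatment in a greenhouse. Test material went straight into floodwater standing 3 cm above the soil, kept constant, on plants at the 2-leaf stage.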

rice (Oryra sativa) = assay: Test B flooded paddy test; details: Oryza sativa, 360 h, Flood, 250 g ai/ha; visually evaluated after 13 to 15 d; read-out: Plant response rating, Rice (0 to 100 scale where 0 is no effect and 100 is complete control)
In short: as §1

[2] = test system: sedge, umbrella (small-flower umbrella sedge, Cyperus difformis); assay: Test B flooded paddy test; details: Cyperus difformis, 360 h, Flood, 250 g ai/ha; visually evaluated after 13 to 15 d; read-out: Plant response rating, Sedge, Umbrella (0 to 100 scale where 0 is no effect and 100 is complete control)
In short: as §1

[3] = test system: barnyardgrass (Echinochloa crus-galli); assay: Test B flooded paddy test; details: Echinochloa crus-galli, 360 h, Flood, 250 g ai/ha; visually evaluated after 13 to 15 d; read-out: Plant response rating, Barnyardgrass (0 to 100 scale where 0 is no effect and 100 is complete control)
In short: as §1

[4] = test system: giant foxtail (Setaria faberii); assay: Test A preemergence; details: Setaria faberi, pre-emergence, 240 h, Preemergence; for pest or weed control at 31 g/ha: 31 g ai/ha, 0 to 100 scale where 0 is no effect and 100 is complete control, read-out: Foxtail, Giant plant response rating; for pest or weed control at 125 g/ha: 125 g ai/ha, 0 to 100 scale (0 no effect, 100 complete control), read-out: Plant response rating, Foxtail, Giant
In short: (§2)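 Ratings of 0 (no effect) to 100 (complete control) come from visual comparison with untreated controls roughly 10 d after treatment. Test chemicals, formulated in a non-phytotoxic solvent mixture with surfactant, were applied either as a preemergence directed soil spray on seeded soil or postemergence to one- to two-leaf plants 2 to 10 cm tall.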

[5] = test system: ragweed (common ragweed, Ambrosia elatior); assay: Test A preemergence; details: Ambrosia artemisiifolia, pre-emergence, 240 h, Preemergence; for pest or weed control at 31 g/ha: 31 g ai/ha, 0 to 100 scale where 0 is no effect and 100 is complete control, read-out: Ragweed plant response rating; for pest or weed control at 125 g/ha: 125 g ai/ha, 0 to 100 scale (0 no effect, 100 complete control), read-out: Plant response rating, Ragweed
In short: as §2

[6] = test system: pigweed (Amaranthus retroflexus); assay: Test A preemergence; details: Amaranthus retroflexus, pre-emergence, 240 h, Preemergence; for pest or weed control at 31 g/ha: 31 g ai/ha, 0 to 100 scale where 0 is no effect and 100 is complete control, read-out: Pigweed plant response rating; for pest or weed control at 125 g/ha: 125 g ai/ha, 0 to 100 scale (0 no effect, 100 complete control), read-out: Plant response rating, Pigweed
[7] = test system: barnyardgrass (Echinochloa crus-galli); assay: Test A preemergence; details: Echinochloa crus-galli, pre-emergence, 240 h, Preemergence; for pest or weed control at 31 g/ha: 31 g ai/ha, 0 to 100 scale where 0 is no effect and 100 is complete control, read-out: Barnyardgrass plant response rating; for pest or weed control at 125 g/ha: 125 g ai/ha, 0 to 100 scale (0 no effect, 100 complete control), read-out: Plant response rating, Barnyardgrass
In short: as §2

Kochia (Kochia scoparia) [8] = assay: Test A preemergence; details: Bassia scoparia, pre-emergence, 240 h, Preemergence; for pest or weed control at 31 g/ha: 31 g ai/ha, 0 to 100 scale where 0 is no effect and 100 is complete control, read-out: Kochia plant response rating; for pest or weed control at 125 g/ha: 125 g ai/ha, 0 to 100 scale (0 no effect, 100 complete control), read-out: Plant response rating, Kochia
In short: as §2

[9] = test system: ryegrass, Italian (Italian ryegrass, Lolium multiflorum); assay: Test A preemergence; details: Lolium multiflorum, pre-emergence, 240 h, Preemergence; for pest or weed control at 31 g/ha: 31 g ai/ha, 0 to 100 scale where 0 is no effect and 100 is complete control, read-out: Ryegrass, Italian plant response rating; for pest or weed control at 125 g/ha: 125 g ai/ha, 0 to 100 scale (0 no effect, 100 complete control), read-out: Plant response rating, Ryegrass, Italian
In short: as §2

[10] = test system: giant foxtail (Setaria faberii); assay: Test A postemergence; details: Setaria faberi, post-emergence, 240 h, Postemergence, read-out: Foxtail, Giant plant response rating (0 to 100 scale); for pest or weed control at 125 g/ha: 125 g ai/ha, visual rating about 10 d after treatment; for pest or weed control at 31 g/ha: 31 g ai/ha, 0 is no effect, 100 is complete control
In short: as §2

corn (Zea mays) = assay: Test A postemergence; details: Zea mays, post-emergence, 240 h, Postemergence, read-out: Corn plant response rating (0 to 100 scale); for plant injury at 125 g/ha: 125 g ai/ha, visual rating about 10 d after treatment; for plant injury at 31 g/ha: 31 g ai/ha, 0 is no effect, 100 is complete control
In short: as §2

[11] = test system: blackgrass (Alopecurus myosuroides); assay: Test A postemergence; details: Alopecurus myosuroides, post-emergence, 240 h, Postemergence, read-out: Blackgrass plant response rating (0 to 100 scale); for pest or weed control at 125 g/ha: 125 g ai/ha, visual rating about 10 d after treatment; for pest or weed control at 31 g/ha: 31 g ai/ha, 0 is no effect, 100 is complete control
In short: as §2

[12] = test system: ragweed (common ragweed, Ambrosia elatior); assay: Test A postemergence; details: Ambrosia artemisiifolia, post-emergence, 240 h, Postemergence, read-out: Ragweed plant response rating (0 to 100 scale); for pest or weed control at 125 g/ha: 125 g ai/ha, visual rating about 10 d after treatment; for pest or weed control at 31 g/ha: 31 g ai/ha, 0 is no effect, 100 is complete control
In short: as §2

[13] = test system: wheat (Triticum aestivum); assay: Test A postemergence; details: Triticum aestivum, post-emergence, 240 h, Postemergence, read-out: Wheat plant response rating (0 to 100 scale); for plant injury at 125 g/ha: 125 g ai/ha, visual rating about 10 d after treatment; for plant injury at 31 g/ha: 31 g ai/ha, 0 is no effect, 100 is complete control
In short: as §2

[14] = test system: pigweed (Amaranthus retroflexus); assay: Test A postemergence; details: Amaranthus retroflexus, post-emergence, 240 h, Postemergence, read-out: Pigweed plant response rating (0 to 100 scale); for pest or weed control at 125 g/ha: 125 g ai/ha, visual rating about 10 d after treatment; for pest or weed control at 31 g/ha: 31 g ai/ha, 0 is no effect, 100 is complete control
In short: as §2

[15] = test system: barnyardgrass (Echinochloa crus-galli); assay: Test A postemergence; details: Echinochloa crus-galli, post-emergence, 240 h, Postemergence; for pest or weed control at 125 g/ha: 125 g ai/ha, visual rating about 10 d after treatment, read-out: Barnyardgrass plant response rating (0 to 100 scale, 0 no effect, 100 complete control); for pest or weed control at 31 g/ha: 31 g ai/ha, 0 is no effect, 100 is complete control, read-out: Barnyardgrass plant response rating (0 to 100 scale)
In short: as §2

Kochia (Kochia scoparia) [16] = assay: Test A postemergence; details: Bassia scoparia, post-emergence, 240 h, Postemergence, read-out: Kochia plant response rating (0 to 100 scale); for pest or weed control at 125 g/ha: 125 g ai/ha, visual rating about 10 d after treatment; for pest or weed control at 31 g/ha: 31 g ai/ha, 0 is no effect, 100 is complete control
In short: as §2

[17] = test system: ryegrass, Italian (Italian ryegrass, Lolium multiflorum); assay: Test A postemergence; details: Lolium multiflorum, post-emergence, 240 h, Postemergence, read-out: Ryegrass, Italian plant response rating (0 to 100 scale); for pest or weed control at 125 g/ha: 125 g ai/ha, visual rating about 10 d after treatment; for pest or weed control at 31 g/ha: 31 g ai/ha, 0 is no effect, 100 is complete control
In short: as §2

`COc1ccc([C@H]2CN(C)C(=O)[C@@H]2C(=O)Nc2cccc(F)c2F)cc1` [Compound 1343] was tested, and the pest or weed control at 250 g/ha [1] was 98%, the pest or weed control at 250 g/ha (rice (Oryra sativa)) was 0% and the pest or weed control at 250 g/ha [2] was 0%. The pest or weed control at 250 g/ha [3] was 95%, the pest or weed control at 31 g/ha [4] was 100% and the pest or weed control at 125 g/ha [4] was 100%. For the same molecule, the pest or weed control at 31 g/ha [5] was 90%, the pest or weed control at 125 g/ha [5] was 0% and the pest or weed control at 31 g/ha [6] was 0%. The pest or weed control at 125 g/ha [6] was 30%, the pest or weed control at 31 g/ha [7] was 90% and the pest or weed control at 125 g/ha [7] was 90%. For the same molecule, the pest or weed control at 31 g/ha (Kochia (Kochia scoparia) [8]) was 0%, the pest or weed control at 125 g/ha (Kochia (Kochia scoparia) [8]) was 40% and the pest or weed control at 31 g/ha [9] was 0%. For the same molecule, the pest or weed control at 125 g/ha [9] was 30%, the pest or weed control at 125 g/ha [10] was 90% and the pest or weed control at 31 g/ha [10] was 60%. It also gave a plant injury at 125 g/ha (corn (Zea mays)) of 0%, a plant injury at 31 g/ha (corn (Zea mays)) of 0% and a pest or weed control at 125 g/ha [11] of 0%. The pest or weed control at 31 g/ha [11] was 0%, the pest or weed control at 125 g/ha [12] was 30% and the pest or weed control at 31 g/ha [12] was 0%. It also gave a plant injury at 125 g/ha [13] of 30%, a plant injury at 31 g/ha [13] of 0% and a pest or weed control at 125 g/ha [14] of 0%. The pest or weed control at 31 g/ha [14] was 0%, the pest or weed control at 125 g/ha [15] was 90% and the pest or weed control at 31 g/ha [15] was 60%. The pest or weed control at 125 g/ha (Kochia (Kochia scoparia) [16]) was 50%, the pest or weed control at 31 g/ha (Kochia (Kochia scoparia) [16]) was 0% and the pest or weed control at 125 g/ha [17] was 20%. For the same molecule, the pest or weed control at 31 g/ha [17] was 0%.
`CN1C[C@H](c2ccc3c(c2)OC(F)(F)O3)[C@@H](C(=O)Nc2ccc(F)nc2F)C1=O` [Compound 1350] showed a pest or weed control at 250 g/ha [1] of 90%, a pest or weed control at 250 g/ha (rice (Oryra sativa)) of 0% and a pest or weed control at 250 g/ha [2] of 0%. It also gave a pest or weed control at 250 g/ha [3] of 90%, a pest or weed control at 31 g/ha [4] of 100% and a pest or weed control at 125 g/ha [4] of 100%. For the same molecule, the pest or weed control at 31 g/ha [5] was 50%, the pest or weed control at 125 g/ha [5] was 80% and the pest or weed control at 31 g/ha [6] was 70%. For the same molecule, the pest or weed control at 125 g/ha [6] was 90%, the pest or weed control at 31 g/ha [7] was 90% and the pest or weed control at 125 g/ha [7] was 90%. For the same molecule, the pest or weed control at 31 g/ha (Kochia (Kochia scoparia) [8]) was 30%, the pest or weed control at 125 g/ha (Kochia (Kochia scoparia) [8]) was 70% and the pest or weed control at 31 g/ha [9] was 30%. For the same molecule, the pest or weed control at 125 g/ha [9] was 30%, the pest or weed control at 125 g/ha [10] was 90% and the pest or weed control at 31 g/ha [10] was 70%. The plant injury at 125 g/ha (corn (Zea mays)) was 50%, the plant injury at 31 g/ha (corn (Zea mays)) was 30% and the pest or weed control at 125 g/ha [11] was 50%. It also gave a pest or weed control at 31 g/ha [11] of 0%, a pest or weed control at 125 g/ha [12] of 60% and a pest or weed control at 31 g/ha [12] of 0%. It also gave a plant injury at 125 g/ha [13] of 50%, a plant injury at 31 g/ha [13] of 20% and a pest or weed control at 125 g/ha [14] of 70%. For the same molecule, the pest or weed control at 31 g/ha [14] was 30%, the pest or weed control at 125 g/ha [15] was 90% and the pest or weed control at 31 g/ha [15] was 60%. The pest or weed control at 125 g/ha (Kochia (Kochia scoparia) [16]) was 70%, the pest or weed control at 31 g/ha (Kochia (Kochia scoparia) [16]) was 50% and the pest or weed control at 125 g/ha [17] was 20%. For the same molecule, the pest or weed control at 31 g/ha [17] was 20%.
